Measurements as given in publication PMC11145187 (Proceedings of the National Academy of Sciences of the …, 2024).
Numbering of substitutions follows the chain as printed. Each block holds one compound with its values, some of them ahead of it.

Tests used:
AHR [1] = tested on: AHR; design: method as in PMID 33260776; conditions: 10 nM, H9 cells; two genes less expressed, 14 higher expressed; cited from earlier work
AHR [2] = tested on: AHR; design: method as in PMID 33230523; conditions: human cells overexpressing either AHR version; cited from earlier work
AHR^V381 [3] = molecular target: T1, AHR^V381 (Homo sapiens, UniProt P35869); conditions: AHR^V381 cells, 4 h
T1 sequence (P35869 11-848): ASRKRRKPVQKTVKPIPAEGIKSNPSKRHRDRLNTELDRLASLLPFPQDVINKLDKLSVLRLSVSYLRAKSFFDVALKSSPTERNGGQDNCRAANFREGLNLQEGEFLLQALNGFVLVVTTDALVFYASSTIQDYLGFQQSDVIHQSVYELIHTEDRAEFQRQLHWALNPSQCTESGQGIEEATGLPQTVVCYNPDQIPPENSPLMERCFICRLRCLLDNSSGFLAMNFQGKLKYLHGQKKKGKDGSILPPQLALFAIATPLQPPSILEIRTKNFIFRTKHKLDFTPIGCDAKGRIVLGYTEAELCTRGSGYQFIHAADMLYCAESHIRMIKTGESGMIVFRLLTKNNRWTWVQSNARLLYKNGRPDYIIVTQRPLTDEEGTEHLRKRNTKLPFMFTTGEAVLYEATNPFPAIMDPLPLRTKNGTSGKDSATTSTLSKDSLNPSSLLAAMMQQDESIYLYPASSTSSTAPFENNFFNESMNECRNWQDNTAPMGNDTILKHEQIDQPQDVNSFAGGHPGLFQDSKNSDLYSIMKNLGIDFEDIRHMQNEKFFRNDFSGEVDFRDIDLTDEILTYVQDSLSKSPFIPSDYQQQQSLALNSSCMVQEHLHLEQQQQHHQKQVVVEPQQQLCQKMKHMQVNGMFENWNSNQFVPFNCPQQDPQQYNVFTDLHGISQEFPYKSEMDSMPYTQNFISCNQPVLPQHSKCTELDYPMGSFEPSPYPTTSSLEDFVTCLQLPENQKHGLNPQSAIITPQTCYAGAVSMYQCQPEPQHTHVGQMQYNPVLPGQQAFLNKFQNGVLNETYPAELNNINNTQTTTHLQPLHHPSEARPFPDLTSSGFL
Experimental: We incubated the cells with different concentrations of AHR ligands and measured CYP1A1 and CYP1B1 mRNA levels after 4 h.
Error bars show SDs of four independent ligand treatments. qPCR were performed in triplicates.
AHR, CYP1A1 and CYP1B1 relative quantification and ligand assays
were purchased from Sigma-Aldrich, dissolved in DMSO (Invitrogen, D12345) to generate stocks 2000x
the final concentrations used in the ligand assays and stored at -20°C.
Four days prior to cell harvest, a single cell solution was prepared with Accutase and the cells were
3000 cells per well were seeded in 96 well plates
and cultured under normal cell culture conditions for four days, with the last media change 24h before cell
harvest. Ligands were added to a final concentration of 0.05% DMSO in the culture medium for four hours
similar to other work (13-15). Cell harvest, reverse transcription and quantitative real-time PCR was […]
for several samples also AHR was measured in a 20 µl multiplexed quantitative PCR reaction with 10 µl […]
GUSB) or Thermo Fisher Scientific (CYP1B1, AHR), sequences: Suppl, Table S1). Quantitative PCR was […]
5 min, 45x (95 °C 5 s, 60 °C 15 s, 72 °C 15 s, plate read). […]
Cq values were determined with Bio-Rad Laboratories’ CFX-Manager (version 3.1) and relative […]
gene in untreated wild type cells. The data were plotted and analyzed using GraphPad Prism (version 8.4.3). […]

AHR^V381 [4] = molecular target: T1, AHR^V381; test: RNA sequencing of treated versus mock-treated AHR^V381-expressing H9 cells; type: cell-based; design: they had not been changed in the editing process; endogenous in cells; host or cells: H9 human embryonic stem cells, a pool of 13 control clones that went through editing but remained wild type; conditions: 5 µM, 4 h
Excerpt: (§1) the manufacturer's instructions.
(§2) manufacturer’s instructions.

AHR^A381 = molecular target: T2, AHR^A381 (Homo sapiens, UniProt P35869, V381A); conditions: 5 µM, 4 h
T2 sequence (P35869 11-848 V381A): T1 sequence (P35869 11-848) with V371A
Excerpt: as §1, §2

SMILES: Clc1cc2c(cc1Cl)Oc1cc(Cl)c(Cl)cc1O2 [2,3,7,8-Tetrachlorodibenzo-p-dioxin]
number of the 117 differentially expressed genes affected by TCDD exposure (AHR [1]): 16 genes
difference between the two AHR forms in induction of CYP1A1 (AHR [2]): no differences

SMILES: c1ccc2c(c1)cc1ccc3cccc4ccc2c1c34 [Benzo(a)pyrene]
concentration at which CYP1A1 and CYP1B1 mRNA levels are slightly induced (AHR^V381 [3]): 1000 nM

number of the 117 genes differing between AHR^A381 and AHR^V381 cells that change expression upon inhibitor treatment (AHR^V381 [4]): none
number of the 117 genes differing between AHR^A381 and AHR^V381 cells that change expression upon inhibitor treatment (AHR^A381): 20 genes
SMILES: Cc1ccccc1N=Nc1ccc(NC(=O)c2ccnn2C)c(C)c1 [CH-223191]
target gene expression upon inhibitor treatment (AHR^V381 [4]): tends to be further reduced upon treatment with the inhibitor, albeit not significantly so
